Measured values: the pKa sets of Baltruschat and Czodrowski (2020)

Details: acidic group

| SMILES | pKa |
| --- | --- |
| O=c1[nH]c2ccccc2nc1[O-] | 12.3 |
| O=C(O)c1cc([N+](=O)[O-])ccc1Sc1ccccc1 | 3.22 |
| Oc1ccc2[nH]cnc2c1 | 10 |
| CC#CC#CCC(=O)O | 3.23 |
| CC(C)CCOc1ccccc1/C=C/C(=O)O | 4.85 |
| Cc1cc(Nc2ccc(O)cc2)cc(C)c1O | 10 |
| CCCCCC(=O)O | 4.85 |
| NNC(=O)C(F)(F)C1(F)OC(F)(F)C(F)(F)C1(F)F (stereo unspecified) | 8.26 |
| C[n+]1cccc(/C=C(/O)c2ccccc2)c1 | 6.75 |
| COc1cc(C(N)=O)ccc1-c1nc2nn(C)cc2[nH]1 | 12.3 |
| Oc1ccc2cccc(Cl)c2c1 | 8.69 |
| CC(=O)[C@@H]1C[C@@H]1C(=O)O | 4.19 |
| NC(=O)CC(=O)c1ccncc1 | 7.91 |
| O=c1c2[nH]cnc2ncn1O | 5.66 |
| Cc1ccnc(NS(=O)(=O)c2ccc(N)cc2)n1 | 6.59 |
| CC(=S)NCc1ccccc1 | 13 |
| Nc1ccc(S(=O)(=O)Nc2ccccn2)cc1 | 8.51 |
| Cc1cc(N(C)C)cc[n+]1O | 4.37 |
| CCN(CC)Cc1cc(OC)ccc1O | 10.9 |
| Cc1cccc(C)c1C(=O)O | 3.23 |
| Cn1c(-c2ccccc2O)[nH+]c2ccccc21 | 5.76 |

| SMILES | pKa |
| --- | --- |
| CC(C(=O)c1ccccc1)[n+]1ccccc1 (stereo unspecified) | 11.5 |
| COC(=O)/C=C(/C)O | 9.48 |
| CCCCCCCCCCc1c(-c2ccccc2)nn(-c2ccccc2)c1O | 6.7 |
| CC[C@H](C(=O)O)[C@@]1(O)C[C@H]2CC[C@@H]1C2 | 4.07 |
| NC(=O)CS(=O)(=O)NC(N)=O | 5.05 |
| CNC(=N)CCNS(=O)(=O)c1ccc(C)cc1 | 11.9 |
| CC(C)C[C@H](N)C(N)=O | 7.84 |
| Cc1ccc(O)c(Cc2cc([N+](=O)[O-])ccc2O)c1 | 6.34 |
| O=C(O)c1ccc([N+](=O)[O-])o1 | 2.06 |
| O/N=C1\CCCCC\C1=N/O | 10.7 |
| O=[N+]([O-])/C=C/c1cccc(O)c1 | 9.05 |
| CC1CC(C(=O)O)=[N+]([O-])C1(C)C (stereo unspecified) | 2.85 |
| CC(=O)/C(=N\O)C(C)C | 9.5 |
| O=C(O)/C=C/c1cccc(O)c1 | 4.4 |
| CC(O)C(C(=O)O)c1ccc(-c2ccccc2)cc1 (stereo unspecified) | 4.3 |
| CCCC[P+](CCCC)(CCCC)C1c2ccccc2-c2ccccc21 | 10.5 |
| O=c1[nH]c(=S)[nH]c2nc[nH]c12 | 5.88 |
| Cc1cc(Br)ccc1C(=O)O | 3.77 |
| Cc1ccc(OCC(=O)N[C@H]2C(=O)N3[C@H]2SC(C)(C)[C@H]3C(=O)O)cc1 | 2.8 |
| Oc1nccc[nH+]1 | 2.24 |
| Cc1cccc(=O)c(O)c1 | 7.26 |

| SMILES | pKa |
| --- | --- |
| O=C(O)CSc1ccc([N+](=O)[O-])cc1 | 3.2 |
| CC[NH+]1CCC[C@@H]1CNC(=O)c1c(OC)ccc(Cl)c1O | 7.07 |
| CC(=O)c1ccc(S)cc1 | 5.33 |
| [NH3+][C@H]1CCC[C@@H](C(=O)O)C1 | 3.7 |
| CCOc1ccc(C(=O)O)c(C)c1 | 4.54 |
| S=c1[nH]c(=S)c2[nH]cnc2[nH]1 | 5.02 |
| O=C1COC(=O)C1[N+](=O)[O-] (stereo unspecified) | 1.68 |
| Nc1ccc[nH+]c1C(=O)O | 1.33 |
| COc1cnc(N)s1 | 4.98 |
| Cc1cc(Cc2cc([N+](=O)[O-])ccc2[O-])cc(C)c1O | 10.9 |
| SCCNc1ccccc1 | 9.5 |
| C[NH+]1CCC(n2nc(-c3ccccc3)c(Cc3ccccc3)c2O)CC1 | 6.73 |
| CC(C)CP(=O)(O)CC(C)C | 3.25 |
| O=C(O)COc1ccccc1[N+](=O)[O-] | 2.9 |
| C=C(C)[C@@H]1C[NH2+][C@H](C(=O)O)[C@@H]1CC(=O)O | 2.09 |
| C[n+]1cccc2cccc(O)c21 | 6.81 |
| C=C(C)[C@H]1C[NH2+][C@H](C(=O)O)[C@H]1CC(=O)O | 2.1 |
| O=C([O-])c1cc2ccccc2cc1O | 12.2 |
| Oc1cc(Cl)cc(Cl)c1 | 8.07 |
| N#Cc1ccc(O)c(O)c1 | 7.72 |
| CN(C)Cc1cc(C(C)(C)C)ccc1O | 11.5 |

Same assay, conditions: basic group

| SMILES | pKa |
| --- | --- |
| COc1ccc([N+](=O)[O-])c(CN)c1 | 8.72 |
| CC1CN2CCC1CC2 (stereo unspecified) | 11.3 |
| CCN(CC)CC(=O)Nc1ccccc1 | 8 |
| Oc1ccc2[nH]cnc2c1 | 5.69 |
| CN1CC(O[Si](C)(C)C)C1 | 9.1 |
| CCCC1CCCN1C (stereo unspecified) | 9.78 |
| CN(C)Cc1ccc(NC(=O)/C=N/[O-])cc1 | 9.56 |
| Cc1cccc(N)c1 | 4.7 |
| CC1(C)[C@@H](N)[C@@H]1[NH3+] | 5.97 |
| CCN(CC)CCOC(=O)c1ccc2ccccc2c1 | 7.52 |
| Cc1cccc(C(C)c2c[nH]cn2)c1C (stereo unspecified) | 7.04 |
| COC(=O)[C@@H](N)Cc1c[nH]cn1 | 7.33 |
| COc1ccc(-c2cc3cnccc3[nH]2)c(OC)c1 | 8.49 |
| COc1cccc([O-])n1 | 9.77 |
| [O-]c1c(Cl)cc(Cl)c(Cl)c1CN1CCCCC1 | 10.3 |
| OCCCc1ccncc1 | 5.9 |
| COc1cc(C(N)=O)ccc1-c1nc2nn(C)cc2[nH]1 | 3.98 |
| CC(C)CCCN(C)CCCNC(=O)/C=N/[O-] | 10.2 |
| NC(=O)c1cc(-c2ccccc2)nnc1NCC[NH+]1CCOCC1 | 2.5 |
| CN(C)c1ccc(/N=N/c2cccc[nH+]2)cc1 | 2 |
| Cc1cc(N)ccc1-c1ccc([NH3+])cc1C | 3.7 |
| CSC(=N)Nc1ccccc1 | 7.14 |

| SMILES | pKa |
| --- | --- |
| CCN(CC)C(C)(C)C=O | 8.3 |
| CC(=O)N1CCNCC1 | 7.94 |
| Nc1ccc(Cl)cc1N | 4.3 |
| Cc1c[nH]c(C)n1 | 8.39 |
| Nc1cccc2nc3ccccc3cc12 | 6.04 |
| COc1ccc(N(C)CO)cc1 | 4.59 |
| CN(C)[C@H]1CCC[C@@H]1C#N | 7.02 |
| CCOC(=O)c1cnc2ccc([N+](=O)[O-])cc2c1[O-] | 8 |
| Cc1ccnc(NS(=O)(=O)c2ccc(N)cc2)n1 | 2.08 |
| CN1CSC[C@H]1C(=O)[O-] | 6.6 |
| CN(C)c1ccc(C(=N)c2ccc(N(C)C)cc2)cc1 | 10.7 |
| COc1cc2c(cc1OC)[C@]13CCN4CC5=CCO[C@@H]6CC(=O)N2[C@@H]1[C@@H]6[C@@H]5C[C@@H]43 | 5.86 |
| O=C([O-])c1cc(-c2ccccc2)nnc1NCCN1CCOCC1 | 7.07 |
| CCCCNc1nnc(-c2ccccc2)cc1C | 6.1 |
| NC[C@H](O)C(=O)[O-] | 9.27 |
| COc1cccc(NCCS)c1 | 5.18 |
| N=C1CCCC1 | 8.95 |
| CNCCO | 9.91 |
| C1=C(c2nc3ccccc3o2)C2CCN1CC2 | 7.23 |
| C=C(C)C(=O)NC(C)(C)CCN(C)C | 9.37 |
| CCOc1nccc([O-])n1 | 8.2 |
| Cc1cc([O-])nc([O-])[n+]1C | 10.1 |

| SMILES | pKa |
| --- | --- |
| Nc1ccc(S(=O)(=O)Nc2ccccn2)cc1 | 2.58 |
| CCN(CC)Cc1cc(OC)ccc1O | 8.62 |
| CN(C)Cc1cc(/N=N/c2ccccc2)ccc1[O-] | 10.2 |
| Cn1ccc(N)n1 | 3.81 |
| c1c[nH]c(P(c2[nH]cc[nH+]2)c2[nH]cc[nH+]2)n1 | 5.26 |
| Brc1ccccn1 | 0.9 |
| Nc1nccnn1 | 4 |
| Cc1cscn1 | 3.14 |
| c1ccc(-c2ccoc2)nc1 | 4.65 |
| NNCCO | 7.12 |
| CCOc1ccc2[nH]c(CC(C)C)nc2c1 | 6.07 |
| CC(C)(C)c1cc(N)cc(C(C)(C)C)c1[N+](=O)[O-] | 2.93 |
| CSS/C(CCO)=C(/C)N(C=O)Cc1cnc(C)nc1N | 5.59 |
| CCCN(CCO)CC(C)O (stereo unspecified) | 8.9 |
| COc1ccc(-c2cnc(-c3ccc(N)cc3)o2)cc1 | 3.22 |
| Nc1cnccn1 | 3.14 |
| C=C[C@H]1C[NH+]2CC[C@@H]1C[C@H]2[C@H](O)c1ccnc2ccc(OC)cc12 | 4.22 |
| CCCCCCCN | 10.3 |
| [NH3+]CCC(=O)N[C@@H](Cc1cnc[nH]1)C(=O)[O-] | 6.74 |
| CNC(=N)CCNS(=O)(=O)c1ccc(C)cc1 | 10 |
| Cc1ccc2c(c1)C(CC[NH3+])CN2 (stereo unspecified) | 4.1 |
| c1cc(N2CCCC2)cc[nH+]1 | -0.53 |

| SMILES | pKa |
| --- | --- |
| CNCC(=O)Nc1c(C)cccc1C | 7.99 |
| CN(C)CCCC(=O)Oc1ccc([N+](=O)[O-])cc1 | 9.6 |
| CC1=CCCN1C | 11.9 |
| c1ccc(-c2[nH]c3ccccc3[nH+]2)nc1 | -1.59 |
| CC(C)Nc1ncnc2c1cnn2C | 4.22 |
| Nc1cccc2cc3ccccc3nc12 | 4.4 |
| Cn1cnc2c(N)nc[nH+]c21 | -0.59 |
| C=Cc1c(C)c2cc3nc(c(CC(=O)OC)c4[nH]c(cc5nc(cc1[nH]2)C(C)=C5CC)c(C)c4C(=O)NCC)[C@@H](CCC(=O)OC)[C@@H]3C | 2.7 |
| CN(C)c1ccc2cc3ccc([NH+](C)C)cc3[nH+]c2c1 | -3.15 |
| CCNc1nc(NCC)nc(NCC)n1 | 5.84 |
| CC[NH+](CC)CCOCCN(C)C | 8.4 |
| N/C(CC[NH3+])=N\O | 3.75 |
| C=C(C(=O)O[C@H]1C[C@@H]2[C@@H]3O[C@@H]3[C@H](C1)N2C)c1ccccc1 | 7.72 |
| Nc1nncc2ccccc12 | 6.6 |
| CC(C)([NH3+])C(N)=S | -8.75 |
| CCN1CCC=C1C | 11.9 |
| NCCNCc1ccccc1 | 9.41 |
| CC(O)CN(CC(C)O)C(C)(C)C (stereo unspecified) | 9.36 |
| SCCNc1ccccc1 | 3.78 |
| COC(=O)N1c2ccccc2[C@@]23CCN4CC=C[C@]5(CC[C@]12[C@](O)(C(=O)OC)C5O)[C@H]43 (stereo partly specified) | 5.63 |
| c1cnc2c(c1)ccc1ncccc12 | 4 |
| CCOc1ccc2[nH]c(C)nc2c1 | 6.22 |

| SMILES | pKa |
| --- | --- |
| Cc1cc(C)n(C)c(=O)n1 | 4 |
| CCCCCCCCCCCCCCCCCCCCCCN | 10.6 |
| CCC(C)(N)C(=O)[O-] (stereo unspecified) | 9.98 |
| COc1cccc(CN)c1OC | 9.41 |
| CCc1nc(C)c[nH]1 | 8.5 |
| C[NH+](C)CCC/N=C(\c1ccccc1)c1cccc2ccccc12 | 4.16 |
| OCCc1ccncc1 | 5.68 |
| NC(=O)/C=C(\O)c1ccncc1 | 7.36 |
| [O-]c1ccc2ccccc2n1 | 11.7 |
| CC(C)CN(CCS)CC(C)C | 8.23 |
| Cc1cccc2[nH]cnc12 | 5.67 |
| Nc1nc(N(CCO)CCO)nc(N(CCO)CCO)n1 | 5.15 |
| COCc1nc(C)c[nH]1 | 7.03 |
| CC1CC(=O)CC(=O)O1 (stereo unspecified) | 5.1 |
| CCN(CC)/N=C(\C)N | 10.6 |
| Nc1ccccc1Cl | 2.64 |
| O=[N+]([O-])c1ccncc1 | 1.86 |
| Cc1cc(C)c2nc(C)cc(N)c2c1 | 10.4 |
| NCCCCCc1ccccc1 | 10.5 |
| CN(C)Cc1cc(C(C)(C)C)ccc1O | 8.55 |
